# Test results published in paper PMC12730722, “Identification and Functional Characterization of the Leg-Enriched Chemosensory Protein PxylCSP9 in Plutella xylostella (Lepidoptera: Plutellidae)” (Biology, 2025).
# Legend:
# [1] = test system: P. xylostella; set-up: key to behavioral effect of plant volatile on P. xylostella (attractive / repellent): Refers to plant volatiles that are attractive to P. xylostella; b: Refers to plant volatiles that are repellent to P. xylostella; conditions: cited from earlier work; for behavioral effect of plant volatile on P. xylostella (attractive / repellent): footnote marks of Table 2, ref 37,45,46,47,48 (a), ref 49,50,51 (b)
# [2] = test system: certain lepidopteran insects; set-up: method as in PMID 40195004, doi:10.1023/A:1020990018111, doi:10.1023/A:1020750029362; conditions: cited from earlier work
# [3] = test system: P. xylostella; set-up: method as in doi:10.1111/j.1744-7917.2004.tb00178.x, doi:10.1111/jen.13144, PMID 29474734; conditions: cited from earlier work
# [4] = target: T1, PxylCSP9 (Plutella xylostella, UniProt A0A8S4FJE6); test: Fluorescence competitive binding assay (Bis-ANS probe displacement)
# Experimental: The purity of all ligands and the fluorescent probe 4,4′-dianilino-1,1′-binaphthyl-5,5′-sulfonate (Bis-ANS) was ≥95%, which was purchased from Aladdin (Shanghai, China) or Sigma-Aldrich (St. Louis, MO, USA.). All the compounds were dissolved individually in chromatography-grade methanol (Aladdin, Shanghai, China) to prepare 1 mM stock solutions. […] The excitation and emission slit widths were both set to 5 nm. The excitation wavelength of the fluorescent probe was 365 nm, and the emission spectra were recorded from 400 to 580 nm.
# In competitive binding assays, the ligand concentrations ranging from 0 to 10 μM were added to a solution containing PxylCSP9 (1 μM) and Bis-ANS (1 μM). All data were analyzed based on the assumptions that the protein was 100% active and that binding followed a 1:1 stoichiometry (protein:ligand) at saturation. The binding curves for Bis-ANS were linearized using a Scatchard plot. The dissociation constants of the competitors were calculated from their corresponding IC50 values using the following equation: Ki = [IC50]/(1 + [Bis-ANS]/KBis-ANS), where IC50 is the ligand concentration that reduces the initial fluorescence intensity of Bis-ANS by half, [Bis-ANS] is the free concentration of Bis-ANS, and KBis-ANS is the dissociation constant of the PxylCSP9/Bis-ANS complex.
# [5] = target: T1, PxylCSP9; test: Binding of fluorescent probe Bis-ANS to PxylCSP9 (titration, Scatchard plot); conditions: 1 μM protein, 50 mM Tris-HCl pH 7.4, probe 1 to 10 μM, read-out: dissociation constant of PxylCSP9/Bis-ANS complex
# Experimental: To identify the ligands that bind to PxylCSP9, we selected several typical chemical components from the host plants of P. xylostella for fluorescence competitive binding experiments. The purity of all ligands and the fluorescent probe 4,4′-dianilino-1,1′-binaphthyl-5,5′-sulfonate (Bis-ANS) was ≥95%, which was purchased from Aladdin (Shanghai, China) or Sigma-Aldrich (St. Louis, MO, USA.). All the compounds were dissolved individually in chromatography-grade methanol (Aladdin, Shanghai, China) to prepare 1 mM stock solutions. Fluorescence competitive binding assays were performed using an RF-5301 Fluorescence Spectrophotometer (Shimadzu, Kyoto, Japan) with a quartz cuvette of a 1 cm path length. The excitation and emission slit widths were both set to 5 nm. The excitation wavelength of the fluorescent probe was 365 nm, and the emission spectra were recorded from 400 to 580 nm.
# The affinity of Bis-ANS for PxylCSP9 was measured by titrating a 1 μM solution of the protein in 50 mM Tris-HCl (pH 7.4) with aliquots of 1 mM Bis-ANS stock solution to final probe concentrations ranging from 1 to 10 μM. In competitive binding assays, the ligand concentrations ranging from 0 to 10 μM were added to a solution containing PxylCSP9 (1 μM) and Bis-ANS (1 μM). […]
# T1 sequence (A0A8S4FJE6 entry or part of it): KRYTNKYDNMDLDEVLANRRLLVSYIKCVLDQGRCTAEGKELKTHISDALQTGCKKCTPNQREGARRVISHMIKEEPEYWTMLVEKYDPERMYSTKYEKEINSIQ
smiles,measurement,setting,value
C=CC(C)(O)CCC=C(C)C (centres unmarked) [Linalool],behavioral effect of plant volatile on P. xylostella (attractive / repellent),[1],Linalool ^b
C=C(C)[C@@H]1CC=C(C)C(=O)C1 [(R)-(-)-Carvone],behavioral effect of plant volatile on P. xylostella (attractive / repellent),[1],(R)-(-)-Carvone ^b
OCCc1ccccc1 [Phenethyl alcohol],behavioral effect of plant volatile on P. xylostella (attractive / repellent),[1],Phenethyl alcohol ^a
same,EAG responses and attractive behaviors,[2],elicit electroantennogram (EAG) responses and attractive behaviors
CC1=CC=C(C(C)C)CC1 [α-Terpinene],behavioral avoidance response of P. xylostella,[1],significantly induce its behavioral avoidance response
same,oviposition deterrent effects,[1],oviposition deterrent effects
same,behavioral effect of plant volatile on P. xylostella (attractive / repellent),[1],α-Terpinene ^b
same,EAG response of P. xylostella,[3],effectively stimulate the EAG response
CCC/C=C/C=O [(E)-2-Hexenal],behavioral effect of plant volatile on P. xylostella (attractive / repellent),[1],(E)-2-Hexenal ^a
CCCCCCCC(C)C [2-Methylnonane],behavioral effect of plant volatile on P. xylostella (attractive / repellent),[1],2-Methylnonane ^b
CCCCCCCCC=O [1-Nonanal],behavioral effect of plant volatile on P. xylostella (attractive / repellent),[1],1-Nonanal ^a
CC(=O)CCC=C(C)C [Methyl heptenone],IC50,"[4]; PxylCSP9 1 μM, Bis-ANS 1 μM, 50 mM Tris-HCl pH 7.4, ligand concentration halving Bis-ANS fluorescence",20.1 ± 1.98 µM
same,Ki,[4]; calculated from IC50: Ki = [IC50]/(1 + [Bis-ANS]/KBis-ANS),17 µM
"O=S(=O)(O)c1cccc2c(-c3ccc(Nc4ccccc4)c4c(S(=O)(=O)O)cccc34)ccc(Nc3ccccc3)c12 [Bis-ANS, 4,4′-dianilino-1,1′-binaphthyl-5,5′-sulfonate]",Kd,[5],4.86 ± 0.04 µM
C=CCN=C=S [Allyl isothiocyanate],feeding and oviposition behaviors in P. xylostella,[1],induce feeding and oviposition behaviors
"CCCC(C)CC(C)C (centres unmarked) [2,4-Dimethylheptane]",behavioral effect of plant volatile on P. xylostella (attractive / repellent),[1],"2,4-Dimethylheptane ^b"
C=CC(=C)CCC=C(C)C [Myrcene],behavioral avoidance response of P. xylostella,[1],significantly induce its behavioral avoidance response
same,behavioral effect of plant volatile on P. xylostella (attractive / repellent),[1],Myrcene ^b
same,EAG response of P. xylostella,[3],effectively stimulate the EAG response
C=C(C)C1CC=C(C)CC1 (centres unmarked) [Limonene],behavioral avoidance response of P. xylostella,[1],significantly induce its behavioral avoidance response
same,oviposition deterrent effects,[1],oviposition deterrent effects
same,behavioral effect of plant volatile on P. xylostella (attractive / repellent),[1],Limonene ^b
same,EAG response of P. xylostella,[3],effectively stimulate the EAG response
